Assay results taken from patent US20050137233A1, “Prodrugs of 1-methyl-2-(4-amidinophenylaminomethyl)-benzimidazol-5-yl-carboxylic acid-(N-2-pyridyl-N-2-hydroxycarbonylethyl)-amide” (Boehringer Ingelheim Pharma GmbH & Co. KG, priority 2002, published 2005).

Key:
[1] = conversion of the prodrugs into active substance II, plasma concentration by HPLC-MS/MS after subcutaneous administration; type: in vivo; conditions: rabbits, after subcutaneous injection, active substance II measured in plasma, detection limit 4 ng/ml
Protocol: In order to investigate the conversion of the prodrugs A and B into the active substance II, 1.0 ml of blood were taken from the central auricular artery of each of the test animals with K-EDTA syringes at various times after subcutaneous administration. The blood was centrifuged and the plasma was acidified with the same volume of 0.2 M hydrochloric acid. These solutions were stored at −20° C. The concentrations of the active substance II were measured using an HPLC-MS/MS apparatus (Perkin Elmer Sciex API 300 LC-MS/MS system). The detection limit was 4 ng/ml.

[2] = tested on: female rabbits; assay: local tolerance after subcutaneous administration, histological comparison of injection sites with placebo sites; type: in vivo
Source text: For example the compounds • A=1-methyl-2-[4-(N-hydroxyamidino)-phenylaminomethyl]-benzimidazol-5-yl-carboxylic acid-(N-2-pyridyl-N-2-ethoxycarbonylethyl)-amide and • B=1-methyl-2-[4-(N-methoxycarbonylamidino)-phenylaminomethyl]-benzimidazol-5-yl-carboxylic acid-(N-2-pyridyl-N-2-hydroxycarbonylethyl)-amide were investigated for their degree of tolerance when administered by subcutaneous route by comparison with active substance II:
Solutions of the test substances were each administered by subcutaneous route once a day on three successive days to two female rabbits (age: 11 to 14 weeks, weight: 2.0 to 3.5 kg). At the same time as the substances were administered a placebo solution was injected contralaterally into the same animal. The animals were killed 48 hours after the last administration and dissected. The injection sites for administering the test substances were compared histologically with the sites of the placebo injections.

| SMILES | conversion of the prodrug into the active substance II [1] | degree of tolerance at the injection sites when administered by subcutaneous route ([2]; female rabbits, subcutaneous once a day on three successive days, histology 48 hours after the last administration, versus contralateral placebo injection) | degree of tolerance at the injection sites when administered by subcutaneous route ([2]; rabbit, in vivo, sc) |
| --- | --- | --- | --- |
| COC(=O)/N=C(/N)c1ccc(NCc2nc3cc(C(=O)N(CCC(=O)O)c4ccccn4)ccc3n2C)cc1 [B, 1-methyl-2-[4-(N-methoxycarbonylamidino)-phenylaminomethyl]-benzimidazol-5-yl-carboxylic acid-(N-2-pyridyl-N-2-hydroxycarbonylethyl)-amide] | converted into the active substance II | very well tolerated locally | – |
| CCOC(=O)CCN(C(=O)c1ccc2c(c1)nc(CNc1ccc(/C(N)=N\O)cc1)n2C)c1ccccn1 [A, 1-methyl-2-[4-(N-hydroxyamidino)-phenylaminomethyl]-benzimidazol-5-yl-carboxylic acid-(N-2-pyridyl-N-2-ethoxycarbonylethyl)-amide] | converted into the active substance II | – | very well tolerated locally |
| Cn1c(CNc2ccc(C(=N)N)cc2)nc2cc(C(=O)N(CCC(=O)O)c3ccccn3)ccc21 [II, 1-methyl-2-(4-amidinophenylaminomethyl)-benzimidazol-5-yl-carboxylic acid-(N-2-pyridyl-N-2-hydroxycarbonylethyl)-amide] | – | – | clear signs of inflammation at the injection sites |
